Where two headings read alike, the source gives them in different places.
Legend:
[1] = system: HepG2 stably expressing LSS-Luciferase transgene (SREBP transcriptional activity); assay: Reporter screening assay, SRE-luciferase reporter; assay type: cell-based; settings: Homo sapiens, 0% FCS media, 24 hours
Procedure: The effect of Compound 1 on transcriptional activity SREBP was evaluated using an SRE-luciferase reporter construct.
After 24 hours incubation medium cells were treated with various Lovastatin concentrations (10 μM, 5 μM and 1 μM). After 24 hours treatment plates were covered with aluminum foil and frozen at −80° C. overnight. Plates were thawed to room temperature and Luciferase assay was performed. Cells were seeded in a 96 well plate in 10% FCS DMEM media and incubated for 24 hours. Then, they are switched to 0% FCS Media with Compound 1 or DMSO control for another 24 hours, at which point they are assayed for activity of LSS-reporter.
Reagents for performing Luciferase assay were stored at −20° C. To a tube of lyophilized assay substrate was added 1 mL Substrate Solvent and mixed well. The Substrate tube after reconstitution was covered with aluminum foil so as to keep it protected from light. […]
Using a multi-channel pipette, 100 μL Assay Solution (buffer+substrate) was added directly to each sample well in Plate 1, which was incubated for 30 min (plate was covered with aluminum foil). After 30 min incubation, the plate was read for total luminescence. Each well was read for 2 seconds in a plate luminometer. (Microplate reader Envision Microplate reader from Perkin Elmer). Precaution was taken to incubate plate exactly for 30 min prior to reading on the plate reader. […]

[2] = Log D, octanol/aqueous buffer partitioning; assay type: physicochemical; settings: 1-octanol/aqueous buffer; 1-octanol/buffer
Procedure: Log D Procedure: The Log D of Compound 1 was evaluated by octanol/aqueous buffer partitioning. 500 μL of organic phase (1-octanol) was added to each well of a 2 mL deep well plate, followed by 500 μL of buffer and 15 μL of test compound in DMSO (0.15 mM). The plate was vortexed for 10 seconds and incubated at room temperature for 1 hr on a plate shaker at 200 rpm. After incubation, the samples were allowed to equilibrate for 20 min and then centrifuged at 4000 rpm for 30 min for complete phase separation. The distribution of test compound in buffer and octanol phase was analyzed by HPLC-UV. Log D=Log (Area of Octanol/Area of Buffer)

[3] = In vitro % Fu, human plasma; assay type: in vitro ADME; settings: read-out: In Vitro % Fu (Hu Plasma)
[4] = In vitro % Fu, mouse plasma; assay type: in vitro ADME; settings: read-out: In Vitro % Fu (Mo Plasma)
[5] = In vivo pharmacokinetics, intravenous; settings: male C57 BL/6 mice, dose 2.00 mg/kg (Compound 1), 2.43 mg/kg (Compound 2); for Vd: male, C57 BL/6, mouse, iv
Procedure: (§1) The in vivo pharmacokinetic properties of Compound 1 by both intravenous and oral administration were evaluated in male C57 BL/6 mice. The in vivo pharmacokinetic properties of Compound 2 by both intravenous and oral administration were evaluated in male C57 BL/6 mice for comparison.
(§2) Animals were housed in cages with clean bedding. Certified rodent diet was provided. Water was available ad libitum. Environmental controls for the animal room were set to maintain a temperature of 22 to 25° C., humidity of 40-70% RH, and a 12-hour light /12-hour dark cycle. Normal healthy animals certified by the attending veterinarian were selected and acclimatized for minimum three days prior to initiation of study.
(§3) Procedure for Blood Withdrawal: Mice were anesthetized using gaseous anesthesia. Blood samples were collected through a capillary, guided in retro-orbital plexus. At each time point, blood samples from 3 mice of each respective group were collected. The blood samples were collected in pre-labeled tubes. 0.2 to 0.3 mL of blood were collected from each mouse. After collection of the blood samples at each time point, the samples were stored on ice prior to centrifugation. Blood samples were centrifuged within 15 minutes to separate plasma. Centrifugations was done at 1540 rcf (5000 rpm) at 4° C. for 10 minutes. The plasma was separated and transferred to pre-labeled micro-centrifuge tubes and promptly frozen at −80±10° C. until bioanalysis was performed. Samples were identified by test item, group, animal number, and collection time point.
(§4) To evaluate pharmacokinetic properties of intravenous delivery, nine male C57 BL/6 mice were administered 2.00 mg Compound 1/kg animal weight through the tail vein. The concentration of Compound 1 in the plasma of the animals was evaluated at 0.083, 0.25, 0.5, 1, 2, 4, 8, and 24 hr by taking blood samples from the mice. Compound 2 was similarly administered for comparison.

[6] = In vivo pharmacokinetics, oral; settings: male C57 BL/6 mice
Procedure: as §1, §2, §3
as §4, with “oral” for “intravenous”, “10” for “2.00”, “by mouth.” for “through the tail vein.”, “at” for “at 0.083,”, “4, 6,” for “4,”, “samples.” for “samples from the mice.”

[7] = mouse, plasma, oral, dose 10.00 mg/kg (Compound 1), 12.01 mg/kg (Compound 2)

EC50 [1]: 150 nM
logD [2]: 3.38
fraction unbound [3]: 0.026
fraction unbound [4]: 0.007
AUCExtra [5]: 7.27%
Vd ([5]; plasma, read-out: Vd): 0.73 L/kg
Vd ([5]; plasma, read-out: Vss): 0.7 L/kg
AUC(0-inf) ([5]; mouse, plasma): 25700 ng·h/mL
AUC(0-t) ([5]; mouse, plasma): 23800 ng·h/mL
C0 ([5]; mouse, plasma): 4630 ng/mL
clearance ([5]; mouse, plasma): 1.3 mL/min/kg
half-life ([5]; mouse, plasma): 6.5 h
MRT last ([5]; mouse, plasma, read-out: MRT0-last): 7.07 h
bioavailability ([6]; mouse, plasma, oral vs intravenous): 59.7%
AUC(0-inf) [6, 7]: 76300 ng·h/mL
AUC(0-t) [6, 7]: 71200 ng·h/mL
Cmax [6, 7]: 7840 ng/mL
Tmax [6, 7]: 0.5 h
half-life [6, 7]: 6.18 h
MRT last ([6]; mouse, plasma, oral, dose 10.00 mg/kg (Compound 1), 12.01 mg/kg (Compound 2), read-out: MRT0-last): 7.6 h
AUCExtra ([6]; oral, dose 10.00 mg/kg (Compound 1), 12.01 mg/kg (Compound 2)): 6.77%
Compound: CC(C)(O)c1cc(-c2csc(-c3ccc(C(=O)N4CCC(O)CC4)cc3Cl)c2)ccn1 [Compound 1, (3-chloro-4-(4-(2-(2-hydroxypropan-2-yl)pyridin-4-yl)thiophen-2-yl)phenyl)(4-hydroxypiperidin-1-yl)methanone]

Source: patent publication US20220356170A1, “SREBP INHIBITOR COMPRISING A THIOPHENE CENTRAL RING” (Capulus Therapeutics, LLC, priority 2019, published 2022)
